Measurements reported in patent US20110178139A1, “Pyridoxamine for the Treatment of Diabetic Kidney Disease” (priority 2004, published 2011).

Assays:
[1] = system: patients with type 1 and type 2 DM and overt nephropathy; test: Randomized, double-blind, placebo-controlled, multicenter trial (PYR206) of PYR 50 mg b.i.d. for six months; assay type: in vivo, human
Description: A randomized, double-blind, placebo-controlled, multicenter trial which examined the safety profile of pyridoxamine dihydrochloride (PYR) in patients with type 1 and type 2 DM and overt nephropathy was conducted. 128 patients (48 type 1, 80 type 2) at 32 sites were randomized to receive either PYR 50 mg twice a day (b.i.d) or placebo for six months, 58 patients in each group completed the study. Groups were well matched at baseline for age, race, gender, blood pressure, hemoglobin AlC (HbAlC), and angiotensin converting enzyme inhibitor (ACEI)/angiotensin receptor blocker (ARB) use.
Baseline characteristics of the patients included serum creatinine=1.27 mg/dL and urinary albumin excretion=868 mg/12 h in treatment, versus 1.33 mg/dL and 1055 mg/12 h in placebo groups (differences not significant, NS).
In addition, the urinary levels of TGF beta in the subjects completing the PYR206 study (combined type 1 and type 2 patients) were tested. This growth factor is an important and accepted marker of renal disease, since it initiates or controls a cascade of cellular changes (from diabetes and other diseases) that lead to mesangial expansion and eventually fibrosis in the kidney. […] This is strong evidence of the action of PYR in retarding or halting the nephropathy due to the diabetes.

[2] = system: diabetic nephropathy patients; test: Separate study: six months of escalating doses of pyridoxamine dihydrochloride in addition to standard of care; assay type: in vivo, human
Description: In a separate study, diabetic nephropathy patients received six months of treatment of escalating doses of pyridoxamine dihydrochloride (50 mg, 100 mg, and 250 mg), administered orally via capsules twice daily as follows:
50 mg bid for 2 weeks, then if tolerated:
10 mg bid for 2 weeks, then if tolerated:
The study drug was administered in addition to standard of care therapy. The patient population consisted of male and female patients between 18 and 70 years of age with diabetic nephropathy associated with type 1 or type 2 diabetes, serum creatinine of […], and macroalbuminuria confirmed with baseline urinary albumin excretion≧300 mg/24 his.
84 patients received at least one dose of the study drug (57 pyridoxamine dihydrochloride; 27 placebo.
Baseline characteristics of the patients included serum creatinine of 1.91 mg/dL and urinary albumin excretion of 957 mg/12 h in treatment, versus 1.95 mg/dL and 1224 mg/12 h in placebo groups.

[3] = PYR 50 mg b.i.d., six months, no significant difference vs placebo
[4] = escalating doses 50, 100, 250 mg bid, six months, no significant difference vs placebo

## Cc1ncc(CO)c(CN)c1O.Cl.Cl [PYR, pyridoxamine dihydrochloride]
[1]; [3]
  serious adverse events: 11%
  study discontinuation due to AE's: 6%
  treatment-related adverse events: 26%
[1]; PYR 50 mg b.i.d., six months, vs placebo
  scored neurotoxicity testing: No significant differences
[1]; all patients, 50 mg b.i.d., six months, p=0.0065 by ANOVA vs placebo
  mean rate of rise in serum creatinine: 0.178 mg/dL/yr
[1]; all patients, p=0.017, ANOVA vs placebo
  rise in mean urinary albumin excretion rate: 122 mg/12 h/yr
[1]; combined type 1 and type 2 patients completing the study, six months, preliminary analysis, placebo increased 43%
  decrease in urinary TGF beta levels (pg TGF/mg Cr): about 24%
[1]; patients with baseline HbAlC over 7.275%, p=0.0282, ANOVA
  rise in albuminuria: reversed
[1]; patients with baseline serum creatinine ≧1.3 mg/dL, p<0.0001 vs placebo
  rate of rise in serum creatinine: 0.17 mg/dL/yr
[1]; type 2 patients taking ACE-I or ARB with baseline serum creatinine ≧1.3 mg/dL (predefined subgroup), p<0.0057 vs placebo
  rate of rise in serum creatinine: 0.138 mg/dL/yr
[1]; vs placebo (Table 5)
  incidence of sensory system neurologic adverse events: significantly reduced
[2]; escalating doses 50, 100, 250 mg bid, six months, higher rate than placebo (3.7%)
  serious adverse events: 21.1%
[2]; [4]
  study discontinuation due to AE's: 8.8%
  treatment-related adverse events: 35.1%
[2]; type 2 patients taking ACE-I or ARB with baseline serum creatinine ≧1.3 mg/dL (predefined subgroup), p<0.0001 vs placebo
  rate of rise in serum creatinine: 0.144 mg/dL/yr
